US8251060B2, “Device and method for delivering an aerosol drug” (priority 2006, dated 2012)

Key:
[1] = aerosol formed from the polyol; cited from earlier work
[2] = Mass transfer of polyol-drug formulations from substrate in device with puffing equipment; effluent collected on Cambridge pads, weighed, nicotine by GC/MS; details: after heating in device with PEG

OCC(O)CO [Glycerin]
MMAD [1]: less than 1.5 micrometers

CN1CCCC1c1cccnc1.O=C(O)C(O)C(O)C(=O)O (stereo not shown) [NIC B, nicotine bitartrate]
decomposition products from nicotine in the chromatograms (GC/MS of extracts of collected effluent) [2]: no measurable decomposition products

CN1CCCC1c1cccnc1 (stereo not shown) [NIC, nicotine]
decomposition products from nicotine in the chromatograms (GC/MS of extracts of collected effluent) [2]: no measurable decomposition products

CC(O)CO (stereo not shown) [Propylene Glycol (PEG), Propylene Glycol]
MMAD [1]: less than 0.9 micrometers
